We go through 3 compounds from ChEMBL document CHEMBL1154552, “Two new prenylated 3-benzoxepin derivatives as cyclooxygenase inhibitors from Perilla frutescens var. acuta” (J Nat Prod, 2000).

In assay [1] the target is T1, Prostaglandin G/H synthase 1 (Ovis aries, UniProt P05979).
T1 sequence (P05979 whole entry): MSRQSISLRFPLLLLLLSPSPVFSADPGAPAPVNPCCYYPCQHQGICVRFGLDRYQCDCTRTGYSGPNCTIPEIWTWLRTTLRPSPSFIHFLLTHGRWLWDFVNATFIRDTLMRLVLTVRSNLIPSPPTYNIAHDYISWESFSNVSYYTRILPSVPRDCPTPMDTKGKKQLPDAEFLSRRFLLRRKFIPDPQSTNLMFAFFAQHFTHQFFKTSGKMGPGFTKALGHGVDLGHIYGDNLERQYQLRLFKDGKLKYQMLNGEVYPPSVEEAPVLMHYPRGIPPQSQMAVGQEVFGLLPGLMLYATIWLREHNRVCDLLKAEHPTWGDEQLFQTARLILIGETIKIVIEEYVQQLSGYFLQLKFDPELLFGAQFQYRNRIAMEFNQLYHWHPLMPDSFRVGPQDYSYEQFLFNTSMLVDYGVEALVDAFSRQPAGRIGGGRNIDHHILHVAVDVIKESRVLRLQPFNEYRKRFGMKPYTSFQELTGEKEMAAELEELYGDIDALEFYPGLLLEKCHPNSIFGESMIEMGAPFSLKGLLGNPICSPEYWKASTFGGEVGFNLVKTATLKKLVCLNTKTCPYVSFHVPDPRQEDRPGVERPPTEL
The assay is described as follows: Inhibition of COX1 in ram seminal vesicle microsomes assessed as reduction of PGE2 formation. Set-up: species or system Microsome.

The target of assay [2] is T2, Prostaglandin G/H synthase 1 (Ovis aries) (UniProt P05979).
T2 sequence (whole entry): T1 sequence (P05979 whole entry)
The settings on record: Seminal vesicle, Microsome, 5 uM.
Description: Inhibition of COX1 in ram seminal vesicle microsomes assessed as reduction of PGE2 formation at 5 uM

The IC50 is the concentration at which inhibition is half-maximal. The term inhibition denotes the share of the control response that was lost under treatment. Read a low inhibition as little suppression.

On to `COc1cc2cc(C(C)(C)O)oc2c2c1C=COC=C2`, for which the concentration for half-maximal inhibition (IC50) in assay [1] worked out at 30.4 µM.
Regarding `COc1ccc2c(c1)c(CC(=O)O)c(C)n2C(=O)c1ccc(Cl)cc1`, in assay [2], the inhibition turned out to be 0.2%.
Regarding `COc1cc2c(c3c1C=COC=C3)O[C@@H](C(C)(C)O)C2` [PERILLOXIN], the IC50 in assay [1] turned out to be 23.2 µM.
